Test system: luciferase gene expression in HEK 293 cells in response to Comp. 004
Assay: Screen of riboswitch constructs with 12C6-1 variant aptamers (libraries N1-N5) against Comp. 004, luciferase in HEK 293 cells
Format: cell-based, human
Settings: library N1 (J2-4), HEK 293, 25 M [sic] Comp. 004
Excerpt: Cloning of riboswitch constructs containing 12C6-1 variant aptamer sequences: 12C6-1 aptamer sequence was used as template, and nucleobases were randomized at certain position in the sequence. Aptamers incorporating random mutagenesis were synthesized by Integrated DNA Technologies, Inc. Golden Gate cloning strategy (New England Biolabs, NEB) was used to clone the synthesized aptamer sequences into intron-exon-intron cassette to replace the 12C6-1 aptamer in the Luci-12C6-1 riboswitch construct, generating riboswitch constructs containing variant aptamer sequences.
To further improve the riboswitch activity in responding to Comp. 004 and related compounds, the aptamer sequence 12C6-1 was subject to mutagenesis to generate aptamer variants, and the riboswitches containing the variant aptamers were screened against Comp. 004 for the ones that have improved dynamic range of induced gene expression (the fold induction), in comparison with the fold induction by parental riboswitch construct Luci-12C6-1. […] These loop or junction region alone or together with stem region in proximity were chosen for random mutagenesis to generate riboswitches with re-engineered aptamer sequences with improved activity.
Five aptamer libraries N1, N2, N3, N4 and N5 were generated by randomizing nucleotides at positions in J2-4, J2-3/J3-3a/J3a-2/P3, L3a, J4-5/J5-4/P4 and L5 regions of the parent 12C6-1 sequence, respectively (see FIGS. 3a and 3b). Single bacterial colonies were picked and plasmids containing variant riboswitch constructs were screened in HEK 293 cells for improved gene regulation activity in response to 25 µM Comp. 004 as compared to parent riboswitch construct Luci-12C6-1.

Compared with “N1_2E6 (CTGGGGAGTCCTTCATGCGGGGC; chemistry not given here)”, “N1_2F3 (CTGGGGAGTCCTTCATGCGGGGC; chemistry not given here)” is lower in “Fold (induction of luciferase gene expression)” value (shortened to “Fold”): 30.39 fold for the first, 15.56 fold for the second.

First: N1_2D1 (CTGGGGAGTCCTTCATGCGGGGC; chemistry not given here)
Second: N1_2F12 (CTGGGGAGTCCTTCATGCGGGGC; chemistry not given here)
The “Fold” value of the first is higher: 4.38 fold for the first, 1.83 fold for the second.

Compared with “N1_2D10 (CTGGGGAGTCCTTCATGCGGGGC; chemistry not given here)”, “N1_2E5 (CTGGGGAGTCCTTCATGCGGGGC; chemistry not given here)” is higher in “Fold” value: 15.53 fold for the first, 35.05 fold for the second.

With “N1_2H1 (CTGGGGAGTCCTTCATGCGGGGC; chemistry not given here)” the “Fold” value was 9.41 fold.

Same assay, conditions: library N2 variant aptamers (J2-3, P3-J3-3a, J3a-2 randomized) of 12C6-1 in riboswitch constructs; in response to Comp. 004; HEK 293 cells

Compared with “N2_2G1 (DNA CTGGGGAGTCCTTCATGC; chemistry not given here)”, “N2_2G3 (DNA CTGGGGAGTCCTTCATGC; chemistry not given here)” is lower in “Fold” value: 1.7 fold for the first, 1.1 fold for the second.

“N2_2G9 (CTGGGGAGTCCTTCATGC; chemistry not given here)” and “N2_2E12 (DNA CTGGGGAGTCCTTCATGC; chemistry not given here)” are the same in “Fold” value: 1.3 fold for the first, 1.3 fold for the second.

Compared with “N2_2G5 (DNA CTGGGGAGTCCTTCATGC; chemistry not given here)”, “N2_2D12 (DNA CTGGGGAGTCCTTCATGC; chemistry not given here)” is higher in “Fold” value: 1.0 fold for the first, 1.1 fold for the second.

Going from “N2_2E4 (DNA CTGGGGAGTCCTTCATGC; chemistry not given here)” to “N2_2F6 (DNA CTGGGGAGTCCTTCATGC; chemistry not given here)”, the “Fold” value rises from 0.7 fold to 1.0 fold.

Going from “N2_2D3 (DNA CTGGGGAGTCCTTCATGC; chemistry not given here)” to “N2_2C9 (CTGGGGAGTCCTTCATGC; chemistry not given here)”, the “Fold” value rises from 0.9 fold to 1.2 fold.

Compared with “N2_2F2 (DNA CTGGGGAGTCCTTCATGC; chemistry not given here)”, “N2_2C1 (CTGGGGAGTCCTTCATGC; chemistry not given here)” is higher in “Fold” value: 1.0 fold for the first, 1.1 fold for the second.

Compared with “N2_2C4 (CTGGGGAGTCCTTCATGC; chemistry not given here)”, “N2_2A1 (CTGGGGAGTCCTTCATGC; chemistry not given here)” is lower in “Fold” value: 2.0 fold for the first, 1.0 fold for the second.

Same assay, conditions: library N5 variant aptamers (L5, X16-X21 randomized) of 12C6-1 in riboswitch constructs; in response to Comp. 004 treatment; HEK 293 cells

Going from “N5_5E4 (CTGGGGAGTCCT; chemistry not given here)” to “N5_9E12 (DNA CTGGGGAGTCCT; chemistry not given here)”, the “Fold” value rises from 1116.0 fold to 1458.4 fold.

Going from “N5_1F10 (CTGGGGAGTCCT; chemistry not given here)” to “N5_1E5 (CTGGGGAGTCCT; chemistry not given here)”, the “Fold” value falls from 1071.3 fold to 681.3 fold.

Going from “N5_7B12 (CTGGGGAGTCCT; chemistry not given here)” to “N5_1H10 (CTGGGGAGTCCT; chemistry not given here)”, the “Fold” value falls from 908.4 fold to 781.1 fold.

First: N5_7H12 (DNA CTGGGGAGTCCT; chemistry not given here)
Second: N5_6E1 (CTGGGGAGTCCT; chemistry not given here)
The “Fold” value of the first is higher: 1194.5 fold for the first, 725.2 fold for the second.

First: N5_7G12 (DNA CTGGGGAGTCCT; chemistry not given here)
Second: N5_12E5 (CTGGGGAGTCCT; chemistry not given here)
The “Fold” value of the first is lower: 894.6 fold for the first, 1898.6 fold for the second.

First: N5_8F3 (DNA CTGGGGAGTCCT; chemistry not given here)
Second: N5_12G11 (CTGGGGAGTCCT; chemistry not given here)
The “Fold” value of the first is lower: 862.0 fold for the first, 1043.8 fold for the second.

Compared with “N5_7H11 (DNA CTGGGGAGTCCT; chemistry not given here)”, “N5_8H1 (DNA CTGGGGAGTCCT; chemistry not given here)” is higher in “Fold” value: 1105.2 fold for the first, 1191.9 fold for the second.

Going from “N5_1H11 (CTGGGGAGTCCT; chemistry not given here)” to “N5_7B3 (CTGGGGAGTCCT; chemistry not given here)”, the “Fold” value rises from 413.6 fold to 756.3 fold.

First: N5_7D2 (DNA CTGGGGAGTCCT; chemistry not given here)
Second: N5_1F9 (CTGGGGAGTCCT; chemistry not given here)
The “Fold” value of the first is higher: 1114.3 fold for the first, 685.1 fold for the second.

First: N5_9C12 (DNA CTGGGGAGTCCT; chemistry not given here)
Second: N5_1G11 (CTGGGGAGTCCT; chemistry not given here)
The “Fold” value of the first is higher: 1094.3 fold for the first, 789.0 fold for the second.

First: N5_3F10 (CTGGGGAGTCCT; chemistry not given here)
Second: N5_7F10 (DNA CTGGGGAGTCCT; chemistry not given here)
The “Fold” value of the first is higher: 894.3 fold for the first, 572.7 fold for the second.

Going from “N5_7G9 (DNA CTGGGGAGTCCT; chemistry not given here)” to “N5_1G4 (CTGGGGAGTCCT; chemistry not given here)”, the “Fold” value falls from 841.7 fold to 86.0 fold.

Compared with “N5_1F6 (CTGGGGAGTCCT; chemistry not given here)”, “N5_1E6 (CTGGGGAGTCCT; chemistry not given here)” is higher in “Fold” value: 247.6 fold for the first, 365.1 fold for the second.

Going from “N5_2B5 (CTGGGGAGTCCT; chemistry not given here)” to “N5_1E10 (CTGGGGAGTCCT; chemistry not given here)”, the “Fold” value falls from 1107.3 fold to 1026.1 fold.

Going from “N5_3D8 (CTGGGGAGTCCT; chemistry not given here)” to “N5_1G10 (CTGGGGAGTCCT; chemistry not given here)”, the “Fold” value rises from 824.4 fold to 1000.2 fold.

First: N5_1B9 (CTGGGGAGTCCT; chemistry not given here)
Second: N5_11B9 (CTGGGGAGTCCT; chemistry not given here)
The “Fold” value of the first is lower: 941.5 fold for the first, 1595.4 fold for the second.

First: N5_7E12 (DNA CTGGGGAGTCCT; chemistry not given here)
Second: N5_8F11 (DNA CTGGGGAGTCCT; chemistry not given here)
The “Fold” value of the first is lower: 933.3 fold for the first, 1282.8 fold for the second.

Going from “N5_6F5 (CTGGGGAGTCCT; chemistry not given here)” to “N5_7F2 (DNA CTGGGGAGTCCT; chemistry not given here)”, the “Fold” value falls from 1665.4 fold to 937.4 fold.

With “N5_7G6 (DNA CTGGGGAGTCCT; chemistry not given here)” the “Fold” value was 902.8 fold.

From patent US20250101436A1, “APTAMERS AND SMALL MOLECULE LIGANDS” (MeiraGTx UK II Limited, priority 2021, published 2025)
